Reference: US11352396B2, “Antimicrobial peptides and methods of using same” (Zoetis Services LLC, priority 2017, dated 2022)
Residues, ends and D or L forms follow the SMILES beside them.

Tests used:
[1] = system: rat red blood cells; test: Red blood cell hemolysis assay, rat; assay type: cell-based; conditions: compared with SEQ ID NO: 13 (tachyplesin), FIG. 1
Procedure: (§1) SEQ ID NO: 1 was selected for further research. Toxicity of SEQ ID NO: 1 to eukaryotic blood cells was compared to that of tachyplesin (SEQ ID NO: 13). A standard, well referenced red blood cell hemolysis assay was employed against multiple species to test the lysis potential of the peptides. Red blood cells (RBCs) were prepared and isolated by several centrifuge and wash steps to remove the plasma fraction. A dose titration (50 μM to 0.05 μM) of test peptides and control peptide melittin were spotted from 50 mM stocks in a 384 well plate. Prepared RBCs were incubated with peptide for one hour at 37° C. Percent hemolysis was measured by optical density at 405 nm and utilizing 1% TritonX100 as hundred percent effect (HPE) and phosphate buffer alone as zero percent effect (ZPE).

[2] = system: bovine red blood cells; test: Red blood cell hemolysis assay, bovine; assay type: cell-based; conditions: compared with SEQ ID NO: 13 (tachyplesin)
Procedure: as §1

[3] = system: mouse red blood cells; test: Red blood cell hemolysis assay, mouse; assay type: cell-based; conditions: compared with SEQ ID NO: 13 (tachyplesin)
Procedure: as §1

[4] = system: beagle red blood cells; test: Red blood cell hemolysis assay, beagle; assay type: cell-based; conditions: compared with SEQ ID NO: 13 (tachyplesin), FIG. 1
Procedure: as §1

[5] = system: human red blood cells; test: Red blood cell hemolysis assay, human; assay type: cell-based; conditions: compared with SEQ ID NO: 13 (tachyplesin), FIG. 1
Procedure: as §1

[6] = system: S. aureus ATCC 29213; assay type: cell-based; parameters: key to SA 29213: MIC in μM (lowest conc. with no visible growth); conditions: S. aureus 29213, Table 6
How it was run: (§2)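 Broth microdilution followed CLSI VET01-S2, with peptides serially diluted to in-assay concentrations of 50 μM to 0.05 μM. A 0.5 McFarland inoculum diluted 1:250 in Mueller-Hinton Broth was incubated with peptide for 18-20 hours. MIC was read visually as the first well without visible growth.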

[7] = system: MRSP (Methicillin-Resistant Staphylococcus pseudintermedius); test: MIC against selected strains of MRSP; assay type: cell-based; parameters: key to MIC MRSP 72192 / MIC MRSP 76923 / MR 71994 / Mr 88493 / MR 72035 / MR 72192 / MR 76923 / MR 79882 / MR 80279 / MR 81926 / MR 86002 / MR 87665: MIC in μM (visual, first well with no growth); conditions: for MR 71994: MRSP strain 71994, Table 6; for MR 72035: MRSP strain 72035, Table 6; for MR 72192: MRSP strain 72192, Table 6; for MR 76923: MRSP strain 76923, Table 6; for MR 79882: MRSP strain 79882, Table 6; for MR 80279: MRSP strain 80279, Table 6; for MR 81926: MRSP strain 81926, Table 6; for MR 86002: MRSP strain 86002, Table 6; for MR 87665: MRSP strain 87665, Table 6; for Mr 88493: MRSP strain 88493, Table 6
How it was run: (§3)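 MIC read by eye as the first well showing no growth after 18–20 h incubation. Cultures at 0.5 McFarland were diluted 1:250 in Mueller-Hinton broth and exposed to peptide over 50 μM–0.05 μM in the assay, per CLSI VET01-S2 microbroth method.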

[8] = system: E. coli ATCC 25922; assay type: cell-based; conditions: E. coli 25922, Table 6
How it was run: as §2

[9] = system: cRBC; assay type: cell-based, canine
How it was run: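 Percent lysis, measured by absorbance at 405 nm, used 1% Triton X-100 as full effect and phosphate buffer as zero. Peptides spanned 50 µM–0.05 µM and were held with plasma-depleted washed erythrocytes at 37 °C for 1 h.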

[10] = system: Canine-derived epithelial keratinocyte (CPEK) cells; assay type: cell-based
How it was run: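 Viability was read by CellTiter-Glo luminescence after overnight exposure (37 °C, 5% CO2) of canine keratinocytes to a peptide range of 50–0.05 μM. Percent effect used phosphate buffer as the zero control and 0.1% Triton X-100 as the full-effect control.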

[11] = system: MSSP (Methicillin-Susceptible Staphylococcus pseudintermedius); test: MIC against selected strains of MSSP; assay type: cell-based; parameters: MIC MSSP 49051 / MIC MSSP 81923 / MIC MSSP 84250 / Effect on MSSP 86000 / Effect on MSSP 72036 / Effect on MSSP 78032: unit not given beside the values; Effect on MSSP 71990 / Effect on MSSP 86001 / Effect on MSSP 72191 / Effect on MSSP 76986 / Effect on MSSP 77378 / Effect on MSSP 81923 / Effect on MSSP 84250 / Effect on MSSP 84658: unit: µM; conditions: for SP 49051: S. pseudintermedius 49051, Table 6; for Effect on MSSP 71990: strain 71990, Table 5; for Effect on MSSP 72036: strain 72036, Table 5; for Effect on MSSP 72191: strain 72191, Table 5; for Effect on MSSP 76986: strain 76986, Table 5; for Effect on MSSP 77378: strain 77378, Table 5; for Effect on MSSP 78032: strain 78032, Table 5; for Effect on MSSP 81923: strain 81923, Table 5; for Effect on MSSP 84250: strain 84250, Table 5; for Effect on MSSP 84658: strain 84658, Table 5; for Effect on MSSP 86000: strain 86000, Table 5; for Effect on MSSP 86001: strain 86001, Table 5
How it was run: as §3

Compound | SA 29213 [6] | MR 71994 [7] | MR 72035 [7] | MR 72192 [7] | MR 76923 [7] | MR 79882 [7] | MR 80279 [7] | MR 81926 [7] | MR 86002 [7] | MR 87665 [7] | Mr 88493 [7] | EC 25922 [8] | cRBC (50 μM) [9] | CPEK (50 μM) [10] | SP 49051 [11] | Effect on MSSP 71990 [11] | Effect on MSSP 72036 [11] | Effect on MSSP 72191 [11] | Effect on MSSP 76986 [11] | Effect on MSSP 77378 [11] | other results
CC[C@H](C)[C@H](NC(=O)CNC(=O)[C@H](CCCNC(=N)N)NC(=O)[C@H](Cc1ccc(O)cc1)NC(=O)[C@H](CS)NC(=O)[C@@H](NC(=O)[C@H](CCCNC(=N)N)NC(=O)[C@H](Cc1ccccc1)NC(=O)[C@H](CS)NC(=O)[C@H](Cc1c[nH]c2ccccc12)NC(=O)[C@@H](N)CCCCN)C(C)C)C(=O)N[C@@H](CS)C(=O)N[C@@H](Cc1ccc(O)cc1)C(=O)N[C@@H](CCCNC(=N)N)C(=O)N[C@@H](CCCNC(=N)N)C(=O)N[C@@H](CS)C(=O)N[C@@H](CCCNC(=N)N)C(=O)N[C@@H](CC(=O)O)C(=O)O [SEQ ID NO: 1, KWCFRVCYRGICYRRCRD] (H-KWCFRVCYRGICYRRCRD-OH; N-terminus and C-terminus assumed) |  |  |  |  |  |  |  |  |  |  |  |  |  |  |  |  |  |  |  |  | times less toxic than SEQ ID NO: 13, rat red blood cells [1]: 2-4 times; difference in toxicity versus SEQ ID NO: 13, bovine red blood cells [2]: negligible; difference in toxicity versus SEQ ID NO: 13, mouse red blood cells [3]: negligible; times less toxic than SEQ ID NO: 13, beagle red blood cells [4]: 2-4 times; times less toxic than SEQ ID NO: 13, human red blood cells [5]: 2-4 times
31 (PWCFRVCYRGICYRRCRD; Artificial Antimicrobial peptide) [compound 31] | 3.1 | 1.6 | 1.6 | 1.6 | 1.6 | 1.6 | 1.6 | 1.6 | 1.6 | 1.6 | 1.6 | 1.6 µM | 43.5 | 11.0 | 1.6 | 1.6 | 1.6 | 1.6 | 1.6 | 1.6 | Effect on MSSP 78032 [11]: 1.6; Effect on MSSP 81923 [11]: 1.6; Effect on MSSP 84250 [11]: 1.6; Effect on MSSP 84658 [11]: 1.6; Effect on MSSP 86000 [11]: 1.6; Effect on MSSP 86001 [11]: 1.6
29 (PKWCFRVCYRGICYRRCRD; Artificial Antimicrobial peptide) [compound 29] | 3.1 | 1.6 | 1.6 | 0.8 | 1.6 | 0.8 | 0.8 | 0.8 | 1.6 | 1.6 | 1.6 | 1.6 µM | 68.2 | 17.5 | 1.6 | 1.6 | 1.6 | 1.6 | 1.6 | 0.8 | Effect on MSSP 78032 [11]: 0.8; Effect on MSSP 81923 [11]: 0.8; Effect on MSSP 84250 [11]: 0.8; Effect on MSSP 84658 [11]: 1.6; Effect on MSSP 86000 [11]: 1.6; Effect on MSSP 86001 [11]: 1.6
